For this experiment, the target named is T1, MD-2 (measured as TLR4/MD-2 complex) (Homo sapiens, UniProt Q9Y6Y9).
T1 construct: gene LY96; recombinant human TLR4/MD-2; His-Flag TLR4/MD-2 protein; with TLR4
Nature of the experiment: SPR (Biacore T200, CM5 chip, immobilised TLR4/MD-2 complex). It is filed as binding. (SPR reads the build-up and loss of mass on a sensor chip optically.)

Here are results for one compound from paper PMC11395244, “Ginsenoside Rh2 Alleviates LPS-Induced Inflammatory Responses by Binding to TLR4/MD-2 and Blocking TLR4 Dimerization” (International Journal of Molecular Sciences, 2024).

T1 sequence (Q9Y6Y9 19-160): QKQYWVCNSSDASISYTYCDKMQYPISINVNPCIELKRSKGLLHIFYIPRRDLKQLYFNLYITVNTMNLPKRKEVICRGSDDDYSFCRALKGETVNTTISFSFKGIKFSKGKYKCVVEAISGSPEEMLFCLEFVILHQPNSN
T1 sequence (O00206 24-839 partner): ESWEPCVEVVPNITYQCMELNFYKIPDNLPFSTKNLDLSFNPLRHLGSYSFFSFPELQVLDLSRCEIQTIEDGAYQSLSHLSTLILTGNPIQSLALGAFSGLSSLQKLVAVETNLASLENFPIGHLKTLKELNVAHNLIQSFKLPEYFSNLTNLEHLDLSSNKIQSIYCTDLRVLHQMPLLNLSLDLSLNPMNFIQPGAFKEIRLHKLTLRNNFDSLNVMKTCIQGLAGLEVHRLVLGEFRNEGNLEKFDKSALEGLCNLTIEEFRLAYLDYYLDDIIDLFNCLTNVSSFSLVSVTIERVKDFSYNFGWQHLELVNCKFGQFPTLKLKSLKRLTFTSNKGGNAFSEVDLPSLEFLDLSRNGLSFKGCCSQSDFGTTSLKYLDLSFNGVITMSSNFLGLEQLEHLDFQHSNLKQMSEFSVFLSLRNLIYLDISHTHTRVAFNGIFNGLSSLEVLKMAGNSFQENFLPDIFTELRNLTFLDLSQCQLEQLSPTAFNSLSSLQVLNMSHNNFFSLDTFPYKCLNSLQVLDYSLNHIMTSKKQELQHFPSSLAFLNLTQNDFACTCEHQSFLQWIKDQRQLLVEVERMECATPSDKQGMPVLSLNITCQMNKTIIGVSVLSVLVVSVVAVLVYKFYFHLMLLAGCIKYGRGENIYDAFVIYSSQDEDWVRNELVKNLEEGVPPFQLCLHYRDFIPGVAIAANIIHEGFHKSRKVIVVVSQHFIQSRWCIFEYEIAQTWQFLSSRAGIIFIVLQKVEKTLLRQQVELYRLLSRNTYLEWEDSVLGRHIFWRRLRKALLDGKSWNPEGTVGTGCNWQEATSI

As a reminder, the Kd is the constant that tells how readily two partners part at equilibrium. A lower Kd goes with tighter binding. In the case of `CC(C)=CCC[C@](C)(O)[C@H]1CC[C@]2(C)[C@@H]1[C@H](O)C[C@@H]1[C@@]3(C)CC[C@H](O[C@@H]4O[C@H](CO)[C@@H](O)[C@H](O)[C@H]4O)C(C)(C)[C@@H]3CC[C@]12C` [G-Rh2, Ginsenoside Rh2], binding was characterised by a dissociation constant (Kd) of 71.2 µM.
